Results on three molecules are retold here after US7691584B2, “Screening of compounds for OCT3 transporter activity” (XenoPort, Inc., priority 2005, dated 2010).

One data set deals with T1, PgP (Homo sapiens, UniProt P08183).
T1 construct: expressed in transfected cells; host or cells: MDCK cells transfected with tetracycline-inducible TREx-PgP
The experiment in a line: Transwell monolayer efflux assay, MDCK cells with TREx-PgP. It counts as cell-based. To be noted: 2.5 nM 3H-vinblastine, in the presence of 250 μM verapamil. On the procedure:
Transwell monolayer efflux assays can be performed by transfecting MDCK cells with the tetracycline-inducible TREx-PgP expression vector. The cells optionally can be transfected with a nucleic acid encoding the transporter of interest. The transfected cells are seeded on polycarbonate filter membranes in transwell dishes and grown for 3-5 days, yielding a polarized monolayer with tight junctions between cells.

Data set [1] concerns the target T2, hOCT3 (Homo sapiens, UniProt O75751). The experiment in a line: hOCT3 direct uptake assay (LC-MS-MS, CHO-TREx-hOCT3 cells). Conditions: specific uptake (induced minus non-induced).
Data set [2] concerns the target T2, hOCT3. As to the kind of experiment: hOCT3 competition uptake assay (3H-MPP uptake into CHO-TREx-hOCT3 cells).
Substrate in data set [3]: NCCc1c[nH]cn1
The experiment in a line: cells, lysate or membranes. To be noted: other: CHO-TREx-hOCT3 cells, specific uptake (induced minus non-induced).

T1 sequence (P08183 whole entry): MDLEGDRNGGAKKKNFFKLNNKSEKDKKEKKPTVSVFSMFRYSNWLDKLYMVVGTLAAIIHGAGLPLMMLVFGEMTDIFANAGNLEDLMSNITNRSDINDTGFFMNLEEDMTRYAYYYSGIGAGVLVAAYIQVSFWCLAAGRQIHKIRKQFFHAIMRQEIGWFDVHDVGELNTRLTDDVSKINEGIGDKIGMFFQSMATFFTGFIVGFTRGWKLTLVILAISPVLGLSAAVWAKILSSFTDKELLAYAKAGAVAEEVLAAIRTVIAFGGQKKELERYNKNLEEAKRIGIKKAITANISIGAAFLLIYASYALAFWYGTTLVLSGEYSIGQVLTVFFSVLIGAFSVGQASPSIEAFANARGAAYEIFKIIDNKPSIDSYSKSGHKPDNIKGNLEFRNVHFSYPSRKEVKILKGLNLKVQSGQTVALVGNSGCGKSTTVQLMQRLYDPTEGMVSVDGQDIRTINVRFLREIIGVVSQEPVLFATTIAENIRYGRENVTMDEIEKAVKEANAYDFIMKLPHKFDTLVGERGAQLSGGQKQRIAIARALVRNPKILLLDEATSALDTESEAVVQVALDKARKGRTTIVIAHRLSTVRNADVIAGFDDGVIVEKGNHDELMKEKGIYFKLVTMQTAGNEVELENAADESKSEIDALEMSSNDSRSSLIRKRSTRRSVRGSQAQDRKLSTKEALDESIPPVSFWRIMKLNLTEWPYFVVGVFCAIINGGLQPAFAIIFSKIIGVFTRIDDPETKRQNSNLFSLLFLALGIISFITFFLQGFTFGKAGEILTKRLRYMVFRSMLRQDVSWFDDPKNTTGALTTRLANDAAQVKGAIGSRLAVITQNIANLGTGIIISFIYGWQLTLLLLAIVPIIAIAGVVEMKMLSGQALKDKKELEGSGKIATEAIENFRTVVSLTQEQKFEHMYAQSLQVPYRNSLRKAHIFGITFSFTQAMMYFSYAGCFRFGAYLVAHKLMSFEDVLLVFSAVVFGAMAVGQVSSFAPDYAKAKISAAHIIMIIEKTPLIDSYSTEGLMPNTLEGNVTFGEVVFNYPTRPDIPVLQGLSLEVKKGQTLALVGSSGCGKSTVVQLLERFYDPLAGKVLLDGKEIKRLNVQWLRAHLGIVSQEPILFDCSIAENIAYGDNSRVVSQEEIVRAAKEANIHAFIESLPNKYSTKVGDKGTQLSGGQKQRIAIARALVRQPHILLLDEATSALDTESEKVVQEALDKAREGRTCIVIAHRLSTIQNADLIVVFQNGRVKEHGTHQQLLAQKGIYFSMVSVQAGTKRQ

In the case of `CC[C@]1(O)C[C@@H]2CN(CCc3c([nH]c4ccccc34)[C@@](C(=O)OC)(c3cc4c(cc3OC)N(C)[C@H]3[C@@](O)(C(=O)OC)[C@H](OC(C)=O)[C@]5(CC)C=CCN6CC[C@]43[C@@H]65)C2)C1` [^3H-vinblastine, vinblastine], on PgP, the “apical to basolateral transport” value is recorded as “strongly increased” and the “basolateral to apical transport” value is “strongly decreased”.

A word on the IC50: it is the concentration needed to halve the response being measured. `NCCc1c[nH]cn1` [Histamine, histamine]: the “Direct Uptake Vmax” value at hOCT3 [1] was 4.6 pmol/min/well. The IC50 at hOCT3 [2] turned out to be 150 µM. For the same molecule, the “uptake of labeled MPP with increasing concentration of unlabeled competitor” value at hOCT3 [2] (cells induced to express OCT3, FIG. 2) is “decreased”.

B1: hOCT3 (Homo sapiens) (protein)
chain: MPSFDEALQRVGEFGRFQRRVFLLLCLTGVTFAFLFVGVVFLGTQPDHYWCRGPSAAALAERCGWSPEEEWNRTAPASRGPEPPERRGRCQRYLLEAANDSASATSALSCADPLAAFPNRSAPLVPCRGGWRYAQAHSTIVSEFDLVCVNAWMLDLTQAILNLGFLTGAFTLGYAADRYGRIVIYLLSCLGVGVTGVVVAFAPNFPVFVIFRFLQGVFGKGTWMTCYVIVTEIVGSKQRRIVGIVIQMFFTLGIIILPGIAYFIPNWQGIQLAITLPSFLFLLYYWVVPESPRWLITRKKGDKALQILRRIAKCNGKYLSSNYSEITVTDEEVSNPSFLDLVRTPQMRKCTLILMFAWFTSAVVYQGLVMRLGIIGGNLYIDFFISGVVELPGALLILLTIERLGRRLPFAASNIVAGVACLVTAFLPEGIAWLRTTVATLGRLGITMAFEIVYLVNSELYPTTLRNFGVSLCSGLCDFGGIIAPFLLFRLAAVWLELPLIIFGILASICGGLVMLLPETKGIALPETVDDVEKLGSPHSCKCGRNKKTPVSRSHL
In general, Km refers to the concentration of substrate that gives half-maximal velocity. With B1, the Km in data set [3] is 110 µM.
